For data set [1], the system named is M. tuberculosis strain H37Rv-LUX. Nature of the data set: microbe, parasite or virus in culture. It is filed as cell-based. The note with it: Mycobacterium tuberculosis, read-out: LORA MIC.
A further data set concerns H37Rv-Mtb. The data set is described as follows: MIC against replicating H37Rv-Mtb in liquid media. Type of data set: cell-based, Mycobacterium tuberculosis. The note with it: for MIC: replicating, 5 days, OD590.
The next data set is described as follows: physchem. The note with it: pH 6.8, aqueous buffer, kinetic from dmso stock.
The next data set deals with VERO cell line. The data set is described as follows: Eukaryotic cytotoxicity (CellTiter-Glo). Type of data set: cell-based, African green monkey. The note with it: Chlorocebus sabaeus, 48 h, 2-day incubation, read-out: VERO Toxicity IC50. On the procedure: Cytotoxicity was tested against the African green monkey adult kidney cell line (VERO, ATCC CRL-1586) as described. Compounds were tested as 10-point, 3-fold serial dilutions in DMSO (final assay concentration of 1% DMSO) and viability was measured using CellTiter-Glo (Promega). Inhibition curves were fitted using the Levenberg–Marquardt algorithm. IC50 was defined as the concentration required to reduce cell viability by 50% after 2-day incubation.
A general note: Cellular ATP, detected with luciferase, serves as a proxy for viable cell number.

Data set [2] relates to M. tuberculosis GC1237 (Mtb-GFP) in Raw 264.7 macrophages. The data set is described as follows: Intracellular mycobacterial replication assay in macrophages. The note with it: Mycobacterium tuberculosis, 120 h, 5 days, read-out: MIC, intracellular M. tuberculosis growth in macrophages. It is filed as cell-based.
Another data set relates to replicating Mtb. The note with it: against three family strains; cited from earlier work.
For data set [3] the following is noted: cited from earlier work.
For data set [4] the following is noted: cited from earlier work. This is another data set of the same source.
Data set [5] deals with M. tuberculosis GC1237 (Mtb-GFP) in Raw 264.7 macrophages. The note with it: cited from earlier work.
For data set [6] the following is noted: in vivo; cited from earlier work.
In the next data set the test system is M. tuberculosis Erdman. Nature of the data set: Chronic Balb/c model of TB infection. The note with it: 25 mg/kg. It is filed as in vivo, Balb/c mice.
For data set [7], the system named is murine Raw 264.7 macrophages. The note with it: mouse.
Where [8] appears, read: Mycobacterium tuberculosis, H37RV, 120 h.

Each structure is given as a SMILES string. Values after ≈ are worked out from the molar mass of the structure shown. Values joined by “and” are separate entries in the source; they are usually repeats but may differ in a detail not shown here. Equal entries are not always repeated. Where two headings read alike, the source gives them in different places. A value given as a limit tells only on which side of the number the result lay.

Consider 14 compounds from article PMC6944458, “Intracellular and in vivo evaluation of imidazo[2,1-b]thiazole-5-carboxamide anti-tuberculosis compounds” (PLoS ONE, 2020).

Description for physchem: The relative solubility of compounds was determined in microbiological medium using turbidity as a measure [27]. A serial dilution of compounds was prepared in DMSO and then transferred to microbiological medium at pH 6.8.

Take `CCc1nc2sc(C)cn2c1C(=O)NCc1ccc2c(c1)CCO2` [ND-11503, N-((2,3-Dihydrobenzofuran-5-yl)methyl)-6-ethyl-2-methylimidazo[2,1-b]thiazole-5-carboxamide]: the MIC in data set [1] is 2.7 µM (≈ 0.922 µg/mL); with H37Rv-Mtb (setting [8]) it was 0.25 to 0.54 µM (≈ 0.0854 to 0.184 µg/mL); in the data set with H37Rv-Mtb, 0.25 µM (≈ 0.0854 µg/mL); in [2] it was 1.25 to 2.5 µM (≈ 0.427 to 0.854 µg/mL). In the data set “physchem”, the solubility was no less than 200 µM. Also, in the data set with VERO cell line, the IC50 was greater than 50 µM.

Turning to `Cc1c(OCC(F)(F)F)ccnc1CSc1nc2ccccc2[nH]1` [LPZS], the IC90 with replicating Mtb is 1.1 to 1.7 µM.

Consider `Cc1cn2c(C(=O)NCc3ccc(N4CCS(=O)(=O)CC4)cc3)c(C)nc2s1` [ND-12015, N-(4-(1,1-Dioxidothiomorpholino)benzyl)-2,6-dimethylimidazo[2,1-b]thiazole-5-carboxamide], for which the “Fold less active than the most potent lipophilic compounds (ND-11543, ND-11564)” value in the data set with H37Rv-Mtb (MIC H37Rv-Mtb comparison) is given as greater than 100 fold. Moreover, the MIC against H37Rv-Mtb (setting [8]) turned out to be 13 µM (≈ 5.44 µg/mL). This compound returned a solubility in “physchem” of 200 µM (≈ 83.7 µg/mL). For the same compound, the IC50 in the data set on VERO cell line is greater than 50 µM.

With `CCc1nc2sc(C)cn2c1C(=O)NCc1ccc(Oc2cccc(C(F)(F)F)c2)nc1` [ND-12024, 6-Ethyl-2-methyl-N-((6-(3-(trifluoromethyl)phenoxy)yridine-3-yl)methyl)imidazo[2,1-b]thiazole-5-carboxamide], in the data set on H37Rv-Mtb (setting [8]), the MIC is 0.21 µM (≈ 0.0967 µg/mL). For the same compound, in the data set “physchem”, the concentration in solution (solubility) came to 50 µM (≈ 23 µg/mL). Moreover, the IC50 in the data set on VERO cell line was greater than 50 µM.

As for `NC(=O)c1sc(N2CCOCC2)cc1OCCc1ccc(OC(F)(F)F)cc1` [Compound 6], the MIC in data set [3] was 0.2 µM (≈ 0.0833 µg/mL).

Consider `O=C(/C=C/c1cccs1)N1CCN(Cc2ccc3c(c2)OCO3)CC1` [AX-35], for which the MIC in data set [4] was 0.14 μM and 0.05 μg/mL.

For `CCc1nc2ccc(Cl)cn2c1C(=O)NCc1ccc(N2CCC(c3ccc(OC(F)(F)F)cc3)CC2)cc1` [Q203], the figures for the MIC (in data set [1]; with H37Rv-Mtb (setting [8]); in [2]) were 1.3 µM (≈ 0.724 µg/mL), 0.005 µM (≈ 0.00279 µg/mL) and 0.0078 µM (≈ 0.00434 µg/mL), respectively. The “MIC, intracellular, previous reports” value in [5] was less than 0.098 µM. Moreover, in data set [6], the “AUC 0–24” value is reported as 44,100 ng·hr/mL. Also, the concentration in solution in “physchem” (solubility) came to 100 µM (≈ 55.7 µg/mL). The IC50 in the data set on VERO cell line is greater than 50 µM.

Regarding `Cc1cn2c(C(=O)NCc3ccc(N4CCS(=O)(=O)CC4)c(F)c3)c(C)nc2s1` [ND-11903, N-(4-(1,1-Dioxidothiomorpholino)-3-fluorobenzyl)-2,6-dimethylimidazo[2,1-b]thiazole-5-carboxamide], the figures for the MIC (in data set [1]; in the data set on H37Rv-Mtb (setting [8])) were 200 µM (≈ 87.3 µg/mL) and 3.7 µM (≈ 1.62 µg/mL), respectively. Also, the “Fold less active than the most potent lipophilic compounds (ND-11543, ND-11564)” value in the data set with H37Rv-Mtb (MIC H37Rv-Mtb comparison) is listed as greater than 100 fold. For the same compound, the solubility in the data set “physchem” is greater than 200 µM. Further, in the data set on VERO cell line, the half-maximal inhibitory concentration (IC50) is greater than 50 µM.

Consider `NNC(=O)c1ccncc1` [INH, Isoniazid], for which, in the data set on M. tuberculosis Erdman (4 weeks), the “Log reduction vs Control (Lung)” value is recorded as 1.73 log10 CFU and the “Log reduction vs Control (Spleen)” value is listed as 2.87 log10 CFU. Besides, in the data set on M. tuberculosis Erdman (ERDMAN, 672 h), the “Lung Log10 CFU ±SEM” value came out at 4.06 ± 0.11 Log10 CFU and the “Spleen Log10 CFU ±SEM” value turned out to be 2.13 ± 0.12 Log10 CFU.

In turn, `Cc1cn2c(C(=O)NCc3ccc(Oc4cccc(C(F)(F)F)c4)nc3)c(C)nc2s1` [ND-12025, 2,6-Dimethyl-N-((6-(3-(trifluoromethyl)phenoxy)yridine-3-yl)methyl)imidazo[2,1-b]thiazole-5-carboxamide] displayed an MIC against H37Rv-Mtb (setting [8]) of 0.33 µM (≈ 0.147 µg/mL). In addition, in the data set “physchem”, the solubility turned out to be 100 µM (≈ 44.6 µg/mL). In addition, in the data set on VERO cell line, the half-inhibitory concentration (IC50) is greater than 50 µM.

With `Cc1cn2c(C(=O)NCc3ccc(Oc4cccc(C(F)(F)F)c4)cc3)c(C)nc2s1` [ND-11564, 2,6-Dimethyl-N-(4-(3-(trifluoromethyl)phenoxy)benzyl)imidazo[2,1-b]thiazole-5-carboxamide], the MIC in [1] amounted to 9.68 µM (≈ 4.31 µg/mL); with H37Rv-Mtb (setting [8]) it was 0.16 µM (≈ 0.0713 µg/mL); against H37Rv-Mtb it was 0.16 µM (≈ 0.0713 µg/mL); in [2], 0.25 µM (≈ 0.111 µg/mL). Further, in the data set “physchem”, the solubility stood at 100 µM (≈ 44.5 µg/mL). The “Macrophage toxicity concentration relative to MIC” value in data set [7] is 4 and 8-fold higher than their MIC. Further, the IC50 with VERO cell line was greater than 50 µM.

Regarding `Cc1cn2c(C(=O)NCc3ccc4c(c3)CCO4)c(C)nc2s1` [ND-11459, N-((2,3-Dihydrobenzofuran-5-yl)methyl)-2,6-dimethylimidazo[2,1-b]thiazole-5-carboxamide], the MIC was 12.4 µM (≈ 4.06 µg/mL) in data set [1] and 1.25 to 2.5 µM (≈ 0.409 to 0.819 µg/mL) in data set [2]. The compound also had a solubility in the data set “physchem” of no less than 200 µM. Also, the “Macrophage toxicity concentration relative to MIC” value in data set [7] was 4 and 8-fold higher than their MIC. Also, in the data set with VERO cell line, the IC50 is greater than 50 µM.

Take `C[C@H]1COC2(CCN(c3nc(=O)c4cc(C(F)(F)F)cc([N+](=O)[O-])c4s3)CC2)O1` [BTZ043, reference compound]: in [5], the “MIC, intracellular, previous reports” value was less than 0.098 µM. In addition, the MIC against H37Rv-Mtb (setting [8]) turned out to be 0.002 µM (≈ 0.000863 µg/mL); in [2] it was 0.0078 µM (≈ 0.00336 µg/mL). In addition, the IC50 with VERO cell line was greater than 50 µM.

Regarding `Cc1cn2c(C(=O)Nc3ccc(Oc4cccc(C(F)(F)F)c4)cc3)c(C)nc2s1` [ND-11566, 2,6-Dimethyl-N-(4-(3-(trifluoromethyl)phenoxy)phenyl)imidazo[2,1-b]thiazole-5-carboxamide], the MIC in [1] is greater than 100 µM; against H37Rv-Mtb (setting [8]) it was 9.1 µM (≈ 3.93 µg/mL); against H37Rv-Mtb, 9.10 µM (≈ 3.93 µg/mL). In the data set on H37Rv-Mtb (MIC H37Rv-Mtb comparison), the “Fold difference in potency, anilide vs benzylic amide ND-11564” value was greater than 50 fold. Also, the solubility in the data set “physchem” came to 50 µM (≈ 21.6 µg/mL). In the data set with VERO cell line, the IC50 is greater than 50 µM.

For orientation: solubility means the dissolved amount per volume that the medium holds. Read a low solubility as little dissolved substance. For orientation: IC50 means the point on the concentration scale where inhibition reaches its midpoint. The term IC90 denotes the concentration needed for an effect of 90%.
